Where two headings read alike, the source gives them in different places.

The target in assay [1] is T1, RIPK1 (Mus musculus, UniProt Q60855).
T1 construct: endogenous in cells; host or cells: immortalized mouse embryonic fibroblasts (MEFs, C57Bl6/J)
T1 sequence (Q60855 1-656): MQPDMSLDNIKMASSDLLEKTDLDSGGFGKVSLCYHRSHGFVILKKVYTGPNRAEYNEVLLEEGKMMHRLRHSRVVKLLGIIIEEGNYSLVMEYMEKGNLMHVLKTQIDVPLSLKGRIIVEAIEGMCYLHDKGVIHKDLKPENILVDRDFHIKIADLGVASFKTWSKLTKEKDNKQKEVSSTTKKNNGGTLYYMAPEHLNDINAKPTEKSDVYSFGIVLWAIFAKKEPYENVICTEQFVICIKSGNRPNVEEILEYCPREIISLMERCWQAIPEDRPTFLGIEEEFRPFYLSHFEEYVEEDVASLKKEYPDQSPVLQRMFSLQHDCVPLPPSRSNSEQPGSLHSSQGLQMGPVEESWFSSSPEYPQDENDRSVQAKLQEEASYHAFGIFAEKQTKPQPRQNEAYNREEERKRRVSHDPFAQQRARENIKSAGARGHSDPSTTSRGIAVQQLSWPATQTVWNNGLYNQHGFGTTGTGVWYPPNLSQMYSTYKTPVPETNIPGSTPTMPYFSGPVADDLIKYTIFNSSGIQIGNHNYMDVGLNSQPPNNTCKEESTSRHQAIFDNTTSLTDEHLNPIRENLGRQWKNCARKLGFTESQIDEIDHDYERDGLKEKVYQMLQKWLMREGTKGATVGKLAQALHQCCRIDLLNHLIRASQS
The assay is described as follows: RIPK1 autophosphorylation (pS166) by Western blot in MEFs stimulated with hTNF + TAK1i + zVAD.fmk. The note with it: immortalised MEFs, 30 min pretreatment with zVAD.fmk 50 μM, TAK1i 1 μM and compound, hTNF 20 ng/ml for 2.5 h, read-out: RIPK1 inhibition (IC50 estimated from a Western blot). The class given is cell-based. On the procedure: MEFs were seeded in 6-well plates at a density of 300.000 cells/well in 2 mL. The next day, the cells were suspended in 1 mL of medium and pre-treated for 30 min with the indicated compounds at 1/5 dilutions series for PERK ranging from 5 to 0.04 µM and 1 μg/mL of Tm followed by 4 h treatment with 20 ng/mL of hTNF. For RIPK1, the cells were pre-treated at 1/10 dilutions series ranging from 10 to 0.01 nM, 50 µM zVAD.fmk and 1 µM TAKi before stimulation with 20 ng/mL of hTNF for 2.5 h. Then, the cells were washed two times with 1 mL of ice-cold PBS before lysis in 0.2 mL of Laemmli buffer 1x (10% (w/v) SDS, 50% glycerol, 0.5% bromophenol blue, 250 mM Tris–HCl pH 6.8) and 250 mM of dithiothreitol (DTT). The cell lysate was then collected and boiled at 95 °C for 10min and stored at −20°C. Proteins expression was later monitored by immunoblotting.
Activation of PERK was induced by stimulation of the cells with Tunicamycin, as previsouly reported ([Bull and Thiede, 2012]). More precisely, the immortalised MEFs were pre-incubated for 30 min with the analogues 18–34 at different concentrations (0.04, 0.2, 1, and 5 µM) prior to 4 h stimulation with Tunicamycin (1 μg/mL). […] Their activities were evaluated by comparing the intensity of the signal to unstimulated MEFs (considered as zero phosphorylation) and Tunicamycin stimulated cells (considered as 100% PERK phosphorylation). The 12 compounds (18–20, 22–29 and 34) that had lost their inhibitory capacity on PERK were then tested for their ability to inhibit RIPK1 as shown in Figures 6A–H. Activation and autophosphorylation of RIPK1 was induced by stimulating the cells with TNF in the presence of TAK1 inhibitor and of the pan-caspases inhibitor zVAD.fmk, a well established necroptotic trigger ([Vanlangenakker et al., 2011]). The MEFs were pre-incubated for 30 min with the different compounds (0.01 nM–1000 nM) and then stimulated with human TNF (20 ng/mL) for 2.5 h. Similar to the PERK assessment, IC50 values for RIPK1 inhibition were estimated as a range of concentrations, and are reported in Table 1. These experiments provide an estimation of the specificity of our analogues against PERK and RIPK1 in comparison to the benchmark GSK’157 already reported as a potent PERK and RIPK1 inhibitor.

Assay [2] deals with immortalized MEFs. The assay is described as follows: RIPK1 kinase-dependent necroptosis (hTNF + zVAD.fmk) in MEFs, Sytox Green.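 Also: cell death taken as background-corrected Sytox Green fluorescence relative to the maximal signal of cells fully permeabilized with 0.1% Triton X-100.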 It counts as cell-based, mouse. The following applies: Mus musculus, 24 h.
Method: In brief, the cells were seeded in duplicate at 10,000 cells per well in a 96-well adherent plate and incubated overnight at 37°C with 5% CO2. […] All the compound stock solutions were prepared in DMSO at 200 µM concentration. After stimulating the cells with human TNF at 20 ng/mL the plate was transferred to the incubator. […] The cell death was calculated by subtracting the background fluorescence from the induced Sytox Green fluorescence and by dividing the obtained result by the maximal fluorescence (minus the background fluorescence) obtained by permeabilization of the cells by using Triton X-100 at a final concentration of 0.1%. Curves were plotted in GraphPad 9 for the IC50 calculation.
Consequently, the compounds were evaluated for their potential protection of RIPK1-mediated necroptosis following human TNF stimulation.
Assay [3] deals with T2, RIPK1 (h) (Homo sapiens, UniProt Q13546).
T2 construct: purchased Eurofins Cerep (KinaseProfiler service)
T2 sequence (Q13546 1-671): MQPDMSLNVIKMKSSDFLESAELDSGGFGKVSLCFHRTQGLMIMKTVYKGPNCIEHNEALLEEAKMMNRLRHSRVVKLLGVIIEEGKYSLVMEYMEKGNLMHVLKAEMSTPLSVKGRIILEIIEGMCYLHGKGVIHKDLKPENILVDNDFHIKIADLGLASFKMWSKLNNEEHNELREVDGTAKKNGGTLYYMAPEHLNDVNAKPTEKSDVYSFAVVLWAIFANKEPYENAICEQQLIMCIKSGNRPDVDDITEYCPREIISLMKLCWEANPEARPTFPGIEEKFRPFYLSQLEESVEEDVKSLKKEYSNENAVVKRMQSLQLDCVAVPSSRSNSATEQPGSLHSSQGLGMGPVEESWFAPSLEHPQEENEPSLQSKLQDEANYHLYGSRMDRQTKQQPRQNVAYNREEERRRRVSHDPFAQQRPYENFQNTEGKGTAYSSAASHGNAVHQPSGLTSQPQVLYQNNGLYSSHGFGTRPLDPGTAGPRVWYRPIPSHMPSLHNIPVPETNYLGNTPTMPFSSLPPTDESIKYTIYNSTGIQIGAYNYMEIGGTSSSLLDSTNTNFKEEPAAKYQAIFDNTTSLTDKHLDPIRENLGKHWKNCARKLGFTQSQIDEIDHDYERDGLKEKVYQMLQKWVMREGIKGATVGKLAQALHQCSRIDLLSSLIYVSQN
The assay can be described thus: KinaseProfiler assay (Eurofins Cerep), hRIPK1 inhibition. The class given is biochemical. The note with it: 9 concentrations (0.0001 μM–1.0 μM), 10 μM ATP. The protocol:
RIPK1 (h) is incubated with 8 mM MOPS pH 7.0, 0.2 mM EDTA, 0.33 mg/mL myelin basic protein, 10 mM Magnesium acetate and [γ-^33P-ATP] (specific activity and concentration as required). The reaction is initiated by the addition of the Mg/ATP mix. After incubation for 120 min at room temperature, the reaction is stopped by the addition of phosphoric acid to a concentration of 0.5%.

The IC50 is the concentration at which inhibition is half-maximal. As for `Cn1cc(-c2ccc3c(c2F)CCN3C(=O)Cc2ccc(C(F)(F)F)cn2)c2c(N)ncnc21` [Compound 22], the IC50 in assay [1] is 1 to 10 nM; in assay [2] (immortalized MEFs, zVAD-fmk 50 μM + hTNF 20 ng/ml, Sytox Green at 24 h, Table 1 series, read-out: IC50 necroptosis), 2.9 nM; in assay [2] (MEFs, hTNF + zVAD.fmk (20 ng/mL), Table 2, read-out: Necroptosis hTNF + zVAD.fmk MEFs IC50), 1.06 nM; in assay [3], 139 nM.

The values above are taken from PMC10119423, “From PERK to RIPK1: Design, synthesis and evaluation of novel potent and selective necroptosis inhibitors” (Frontiers in Chemistry, 2023).
